{"source": "patent US20240391958A1", "about": "“KEANUMYCINS AND USES THEREOF IN MEDICINE AND PLANT PROTECTION” (Leibniz-Institut für Naturstoff-Forschung und …, priority 2023, published 2024)", "key": {"C. albicans [1]": {"tested_on": "C. albicans", "test": "Genome-wide microarray, transcription rate change", "assay_type": "cell-based, Candida albicans", "conditions": "sublethal concentration, 1-h exposure, vs nontreated"}, "[2]": {"tested_on": "Alternaria solani SF003858", "test": "Broth dilution method (NCCLS)", "assay_type": "cell-based", "conditions": "22 °C", "method": "(§1) The activity assay was performed using the broth dilution method according to the EUCAST DEFINITIVE DOCUMENT E.DEF 9.3.2. B. cinerea and A. solani were incubated according to the Methods for dilution antimicrobial susceptibility tests for bacteria that grow aerobically by the NCCLS. Keanumycin A was dissolved in DMSO."}, "[3]": {"tested_on": "Botrytis cinerea SF011406", "test": "Broth dilution method (NCCLS)", "assay_type": "cell-based", "method": "as §1"}, "Mycobacterium vaccae": {"tested_on": "Mycobacterium vaccae", "test": "Disk diffusion test", "assay_type": "cell-based", "conditions": "1 mg/mL in MeOH, 50 μL per 9 mm hole, 24 h 37 °C", "method": "(§2) A qualitative screen of different microorganisms was performed using a disk diffusion test. Each microorganism was plated on Mueller Hinton agar plates and 9 mm holes were punched out. The respective compounds were dissolved in the indicated solvent to yield solutions of specified concentrations. 50 μL of the respective solutions were placed in each hole. The plates were incubated for 24 h at 37° C. After incubation, the size of inhibition zones was determined."}, "Bacillus subtilis": {"tested_on": "Bacillus subtilis", "test": "Disk diffusion test", "assay_type": "cell-based", "conditions": "1 mg/mL in MeOH, 50 μL per 9 mm hole, 24 h 37 °C", "method": "as §2"}, "[4]": {"tested_on": "Staphylococcus aureus (MRSA) 134/94", "test": "Disk diffusion test", "assay_type": "cell-based", "conditions": "1 mg/mL in MeOH, 50 μL per 9 mm hole, 24 h 37 °C", "method": "as §2"}, "Penicillium notatum": {"tested_on": "Penicillium notatum", "test": "Disk diffusion test", "assay_type": "cell-based", "conditions": "1 mg/mL in MeOH, 50 μL per 9 mm hole, 24 h 37 °C; methanol alone 10 mm", "method": "as §2"}, "Candida albicans": {"tested_on": "Candida albicans", "test": "Disk diffusion test", "assay_type": "cell-based", "conditions": "1 mg/mL in MeOH, 50 μL per 9 mm hole, 24 h 37 °C", "method": "as §2"}, "[5]": {"tested_on": "Staphylococcus aureus SG 511", "test": "Disk diffusion test", "assay_type": "cell-based", "conditions": "1 mg/mL in MeOH, 50 μL per 9 mm hole, 24 h 37 °C", "method": "as §2"}, "[6]": {"tested_on": "Pseudomonas aeruginosa K799/61", "test": "Disk diffusion test", "assay_type": "cell-based", "conditions": "1 mg/mL in MeOH, 50 μL per 9 mm hole, 24 h 37 °C", "method": "as §2"}, "[7]": {"tested_on": "Enterococcus faecalis (VRE) 1528", "test": "Disk diffusion test", "assay_type": "cell-based", "conditions": "1 mg/mL in MeOH, 50 μL per 9 mm hole, 24 h 37 °C", "method": "as §2"}, "[8]": {"tested_on": "Sporobolomyces salmonicolor", "test": "Disk diffusion test", "assay_type": "cell-based", "conditions": "1 mg/mL in MeOH, 50 μL per 9 mm hole, 24 h 37 °C; methanol alone 10 mm", "method": "as §2"}, "Escherichia coli": {"tested_on": "Escherichia coli", "test": "Disk diffusion test", "assay_type": "cell-based", "conditions": "1 mg/mL in MeOH, 50 μL per 9 mm hole, 24 h 37 °C", "method": "as §2"}, "[9]": {"tested_on": "Pseudomonas aeruginosa SG 137", "test": "Disk diffusion test", "assay_type": "cell-based", "conditions": "1 mg/mL in MeOH, 50 μL per 9 mm hole, 24 h 37 °C", "method": "as §2"}, "C. albicans [10]": {"tested_on": "C. albicans", "test": "Membrane permeabilization assay using SYTOX Green", "assay_type": "cell-based, Candida albicans", "conditions": "4 μg mL-1 in 1% DMSO", "excerpt": "Only isolated cells are stained, which can be explained by the fact that the dye can also be used to distinguish dead from live cells. Scale bar=100 μm.\nTo finally examine if keanumycin A is a membrane-active compound, the inventors performed a membrane permeabilization assay using SYTOX Green (FIG. 6). As a cell-impermeant dye, SYTOX Green enters the cell upon loss of membrane integrity and binds to DNA, which results in fluorescently stained cells. […] Thus, the keanumycins are membrane-active compounds that disturb the structure of the fungal […]."}, "C. albicans [11]": {"tested_on": "C. albicans", "test": "Fungal viability in vaginal epithelial infection model (XTT)", "assay_type": "cell-based, Candida albicans", "conditions": "XTT absorbance after 24-hour infection, N=2", "method": "(§3) FIGS. 7A-7B show in 7A) Keanumycin A protected human vaginal epithelial cells in C. albicans infection model. Micrograph depicts % damage to human vaginal epithelial cells A431 (y-axis) in the presence of keanumycin A at varied concentrations (x-axis) as estimated by LDH cytotoxicity assay after 24 hours of infection or treatment. LDH absorbance was normalized to C. albicans infected and uninfected controls. Keanumycin A protected vaginal cells from damage by C. albicans at a narrow concentration range from 4-8 μg/ml (black line). Keanumycin A was toxic to vaginal cells at concentrations above 8 μg/ml (grey line) (N=3). […] Vaginal epithelial cells were lysed after 24-hour infection, and fungal viability was measured by XTT absorbance, normalized to C. albicans infected and uninfected controls (N=2) […]\n(§4) Overnight culture of C. albicans strain SC5314 grown in YPD at 30° C., shaking at 180 RPM was harvested, washed twice with PBS. […] Epithelial damage was measured 24 hours after infection by collecting and diluting the supernatant 1:10 in PBS and measuring the lactate dehydrogenase (LDH) activity with the Roche Cytotoxicity Detection Kit (LDH) as per manufacturer's instructions. The absorbance (490 nm) values are represented as percentage damage, which is normalized to the low control, where medium only is 0% damage, and high control, where C. albicans infection is 100% damage. […]"}, "[12]": {"tested_on": "human vaginal epithelial cells A431", "test": "Toxicity to uninfected vaginal epithelial cells (LDH)", "assay_type": "cell-based", "conditions": "A431 cells without infection, 24 hours", "method": "as §3, §4"}, "[13]": {"tested_on": "human umbilical vein endothelial cells HUVEC (ATCC CRL-1730)", "test": "Antiproliferative effect", "assay_type": "cell-based", "method": "(§5) Keanumycin A was assayed for antiproliferative effects (GI50) using human umbilical vein endothelial cells HUVEC (ATCC CRL-1730) and human chronic myeloid leukemia cells K-562 (DSM ACC 10) and for their cytotoxic effects (CC50) using human cervix carcinoma cells HeLa (DSM ACC 57) as previously described). The test compounds were dissolved in DMSO (10 mg mL-1)."}, "[14]": {"tested_on": "human chronic myeloid leukemia cells K-562 (DSM ACC 10)", "test": "Antiproliferative effect", "assay_type": "cell-based", "method": "as §5"}}, "note": "“And” between values parts separate entries of the source, which are not always exact repeats. Equal values may be shown once. Read-outs that look alike come from different tables or passages of the source. Where a SMILES comes first, the peptide text is derived from it. Bridges are numbered along the chain shown (N, C = ends). [ ]: non-standard residue; d: D form. The star is where a group is joined. X1 = CCCCCCCCCCCC[C@@H](O)[C@@H](O)CC(=O)*; Asp(3S-OH) = N[C@H](C(=O)O)[C@H](O)C(=O)O; Thr(4-Cl) = N[C@H](C(=O)O)[C@H](O)CCl; aThr = C[C@H](O)[C@H](N)C(=O)O; d(hSer) = N[C@H](CCO)C(=O)O; dDab = NCC[C@@H](N)C(=O)O; Dab = NCC[C@H](N)C(=O)O; Dhb = C/C=C(\\N)C(=O)O", "data": [{"smiles": "C/C=C1\\NC(=O)[C@H]([C@H](C)O)NC(=O)[C@H](CCN)NC(=O)[C@@H](CCO)NC(=O)CNC(=O)[C@@H](CCN)NC(=O)[C@@H](NC(=O)C[C@H](O)[C@H](O)CCCCCCCCCCCC)COC(=O)[C@H]([C@H](O)CCl)NC(=O)[C@H]([C@H](O)C(=O)O)NC1=O", "note": "[Keanumycin A, keanumycin A] (X1-S[dDab]G[d(hSer)][Dab][aThr][Dhb][Asp(3S-OH)][Thr(4-Cl)]; ester 1-C)", "values": [{"measurement": "transcription rate change, ERG3", "setting": "C. albicans [1]; ergosterol biosynthesis", "result": "−1.83", "unit": "log2-fold change"}, {"measurement": "transcription rate change, IPT1", "setting": "C. albicans [1]; sphingolipid biosynthesis", "result": "−0.44", "unit": "log2-fold change"}, {"measurement": "transcription rate change, ORM1", "setting": "C. albicans [1]; sphingolipid biosynthesis", "result": 0.55, "unit": "log2-fold change"}, {"measurement": "transcription rate change, SCS7/FAH1", "setting": "C. albicans [1]; sphingolipid biosynthesis", "result": "−1.10", "unit": "log2-fold change"}, {"measurement": "transcription rate change, SYR2/SUR2", "setting": "C. albicans [1]; sphingolipid biosynthesis", "result": 0.66, "unit": "log2-fold change"}, {"measurement": "MIC", "setting": "[2]", "result": "1.07 µM and 1.25 µg/mL"}, {"measurement": "MIC", "setting": "[3]; Botrytis cinerea SF011406, NCCLS, 22 °C", "result": 0.08, "unit": "mg/L"}, {"measurement": "MIC", "setting": "[3]; Botrytis cinerea, SF011406, Botrytis cinerea, NCCLS, 22 °C, read-out: MIC", "result": 0.07, "unit": "µM"}, {"measurement": "MIC", "setting": "[3]; Botrytis cinerea, SF011406, Botrytis cinerea, read-out: MIC", "result": 0.069, "unit": "µM"}, {"measurement": "Inhibition area diameter", "setting": "Mycobacterium vaccae", "result": 13, "unit": "mm"}, {"measurement": "Inhibition area diameter", "setting": "Bacillus subtilis", "result": 11, "unit": "mm"}, {"measurement": "Inhibition area diameter", "setting": "[4]", "result": 0, "unit": "mm"}, {"measurement": "Inhibition area diameter", "setting": "Penicillium notatum", "result": 26, "unit": "mm"}, {"measurement": "Inhibition area diameter", "setting": "Candida albicans", "result": 30, "unit": "mm"}, {"measurement": "Inhibition area diameter", "setting": "[5]", "result": 10, "unit": "mm"}, {"measurement": "Inhibition area diameter", "setting": "[6]", "result": 0, "unit": "mm"}, {"measurement": "Inhibition area diameter", "setting": "[7]", "result": 12, "unit": "mm"}, {"measurement": "Inhibition area diameter", "setting": "[8]", "result": 28, "unit": "mm"}, {"measurement": "Inhibition area diameter", "setting": "Escherichia coli", "result": 0, "unit": "mm"}, {"measurement": "Inhibition area diameter", "setting": "[9]", "result": 0, "unit": "mm"}, {"measurement": "membrane permeabilization (SYTOX Green staining)", "setting": "C. albicans [10]", "result": "permeabilizes the cell wall of the fungi"}, {"measurement": "membrane permeabilization (SYTOX Green staining)", "setting": "C. albicans [10]; listed as keanumycin A", "result": "staining of all cells"}, {"measurement": "% fungal viability of C. albicans in infection model", "setting": "C. albicans [11]", "result": "reduced C. albicans viability"}, {"measurement": "concentrations toxic to vaginal cells", "setting": "[12]", "result": "above 8 μg/ml"}, {"measurement": "GI50", "setting": "[13]", "result": "≥ 50", "unit": "mg/L"}, {"measurement": "GI50", "setting": "[13]; converted value, read-out: GI50", "result": "> 43", "unit": "µM"}, {"measurement": "GI50", "setting": "[14]; K562", "result": 26.8, "unit": "mg/L"}, {"measurement": "GI50", "setting": "[14]; K562, K-562, converted value, read-out: GI50", "result": 23, "unit": "µM"}]}]}
